Assay results reported in patent US20250382250A1, “STILBENE DERIVATIVE AS AHR AGONIST AND USE THEREOF” (NANJING GRITPHARMACO., LTD., priority 2022, published 2025).
Marks after values point to notes of the source that are not given here.

Assays:
[1] = molecular target: T1, AhR (Homo sapiens, UniProt P35869); test: AhR agonism luciferase reporter gene assay in transfected HepG2 cells; type: cell-based; details: 16 h, ratio of treatment group to blank
T1 construct: expressed in transfected cells; host or cells: HepG2
T1 sequence (P35869 11-848): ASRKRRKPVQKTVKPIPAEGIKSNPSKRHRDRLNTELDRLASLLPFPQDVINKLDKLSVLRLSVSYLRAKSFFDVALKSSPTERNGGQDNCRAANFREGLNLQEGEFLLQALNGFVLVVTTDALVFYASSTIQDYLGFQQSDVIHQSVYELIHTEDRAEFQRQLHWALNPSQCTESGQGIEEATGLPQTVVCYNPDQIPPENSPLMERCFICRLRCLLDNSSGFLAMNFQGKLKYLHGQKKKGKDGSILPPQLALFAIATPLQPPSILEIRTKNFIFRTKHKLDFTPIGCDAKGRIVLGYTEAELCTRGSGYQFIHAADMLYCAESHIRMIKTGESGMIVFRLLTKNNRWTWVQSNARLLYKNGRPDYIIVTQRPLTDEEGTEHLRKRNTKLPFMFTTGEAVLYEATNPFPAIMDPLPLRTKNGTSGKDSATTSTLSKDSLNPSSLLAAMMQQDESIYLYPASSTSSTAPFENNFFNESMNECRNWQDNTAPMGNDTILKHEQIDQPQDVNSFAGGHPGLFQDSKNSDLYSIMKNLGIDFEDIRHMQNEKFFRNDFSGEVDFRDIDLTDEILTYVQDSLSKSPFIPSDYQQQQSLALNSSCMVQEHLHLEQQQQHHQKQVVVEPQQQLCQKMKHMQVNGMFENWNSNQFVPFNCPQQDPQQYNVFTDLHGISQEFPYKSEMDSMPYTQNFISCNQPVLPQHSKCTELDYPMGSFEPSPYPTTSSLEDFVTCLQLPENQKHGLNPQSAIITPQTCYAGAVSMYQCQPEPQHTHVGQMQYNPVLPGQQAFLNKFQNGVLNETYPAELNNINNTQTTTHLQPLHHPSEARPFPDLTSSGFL
Procedure: When the cell confluence reached 80%, the culture medium was replaced with a fresh one, and the transfection working solution was added for transfection overnight. The formula of the working solution is as follows: 1 mL of Opti-MEM+7.5 μg of pCMV-AHR+7.5 μg of pTK-3×DRE-Luc+30 μL of lipo6000. • (2) Cell plating: The transfected cells were digested, prepared into a cell suspension at a concentration of 3×10^5 cells/mL, and then plated on a 96-well plate at 100 µL/well for adherent culture overnight. • (3) Formulation
The prepared drug-containing culture media and a blank culture medium were added to the 96-well plate described above at 100 μL/well.

[2] = test system: TNFa; test: Regulatory effect on cytokine secretion in PHA-stimulated PBMCs: TNFa; type: cell-based; details: for TNFa: PBMCs, 15 μg/mL PHA, 24 h (PHA group 3649.21)
Procedure: (§1) • (1) Cells: […]; • (2) Cell plating and treatment: After the PBMCs were taken out from the liquid nitrogen tank and thawed, 80 μL of culture medium was added to a 96-well plate, and the cells were added at 200,000 cells/well. The culture media containing 2 μM or 0.2 μM compound 2 #, compound 6 #, or reference 1 # were added to the 96-well plate at 80 μL, at a final drug concentration of 1 μM or 0.1 μM per well. The plate was let stand for 1 h for pretreatment. After the pretreatment, the drug-containing medium was discarded, and 1 μM or 0.1 μM solution containing 15 μg/mL PHA (phytohemaggluyinin) was added at 80 μL/well. After 24 h of stimulation, the content of cytokines in the culture medium was detected. • Blank control group: The cells were treated with a normal culture medium with no drugs; • PHA group: A culture medium containing 15 μg/mL PHA but no compounds of the present disclosure was added at 80 μL/well.

[3] = test system: IL4; test: Regulatory effect on cytokine secretion in PHA-stimulated PBMCs: IL4; type: cell-based; details: for IL4: PBMCs, 15 μg/mL PHA, 24 h (PHA group 9.42)
Procedure: as §1

[4] = test system: atopic dermatitis; test: DNFB-induced atopic dermatitis mouse model (AD Score); type: in vivo, BALB/C mice; set-up: scale not given here; details: DNFB mice
Procedure: 56 clean-grade BALB/C mice aged 6-8 weeks were subjected to 5 days of adaptive feeding and then randomized into 7 groups of 8 mice each: • A. Blank control group • B. Modeling+solvent group • C. Modeling+blank matrix group • D. Modeling+positive drug mometasone furoate group • E. Modeling+1 wt % of benvitimod group • F. […] The animal experiments were conducted in accordance with the Experimental Animal Feeding, Management and Use Guidelines of China Pharmaceutical University and in compliance with animal study ethics and regulations. As shown in the above procedures, the solvent control or DNFB was given in the morning for modeling; from day 5, the test compound ointment was administered once every afternoon at 50 mg/dose evenly on the skin surface. The specific administration method is as shown above; Specific procedures: […] Severity of atopic dermatitis was scored using the AD Score criteria The severity of the appearance of dermatitis was evaluated based on 4 indicators: A. erythema/bleeding; B. dryness; C. effusion/crusting; D. edema.

[5] = Drug permeation rate test, in vitro diffusion through semipermeable membrane; type: in vitro ADME; details: ointments: 2# 1.2 wt %, 6# 1.2 wt %, benvitimod 1.0 wt %, 32° C.
Procedure: (§2) Test compounds: compound 2 #ointment, 1.2 wt %; compound 6 #ointment, 1.2 wt %; benvitimod ointment, 1.0 wt %;
[drawing 90] • (1) Preparation of semipermeable membrane: The semipermeable membrane, which had been prepared in advance, was taken out from the refrigerator; • (2) Preparation of receiving liquid: 100 mL of polyethylene glycol 400 solution was brought to a final volume of 250 mL with normal saline. The mixture was mixed well and stored at 4° C. Before each permeation in the receiving compartment, the system was preheated to 32° C.; • (3) In vitro diffusion test: A drug transdermal diffusion apparatus was used to fix the processed semipermeable membrane between the supply and receiving compartments. A constant temperature water bath circulation at 32° C. was maintained. The system was equilibrated for 30 min. Upon each replacement of the receiving liquid, the air at the lower layer was exhausted. About 0.5 g of the ointment was evenly smeared in the supply compartment. The system was stirred with a magnetic stirring at a rotation speed of 600 r/min. At 0.5, 1, 2, 4, 6, and 24 h, 1 mL of sample liquid was taken out from the receiving compartment, and simultaneously, an equal amount of fresh receiving liquid at the same temperature was added;
The sampling time points were 0.5, 1, 2, 4, 6, and 24 h, and 1 mL of sample was directly transferred into a liquid phase vial. Simultaneously, an equal amount of fresh receiving liquid at the same temperature was added. The liquid phase detection was conducted to calculate the drug permeation rate.

[6] = Ointment diffusion test, ex vivo rabbit skin; type: in vitro ADME; details: ointments: 2# 1.2 wt %, 6# 1.2 wt %, benvitimod 1.0 wt %, 32° C.
Procedure: as §2
• (1) Preparation of ex vivo rabbit skin • (2) Preparation of receiving liquid: 100 mL of polyethylene glycol 400 solution was brought to a final volume of 250 mL with normal saline. The mixture was mixed well and stored at 4° C. Before each permeation in the receiving compartment, the system was preheated to 32° C. • (3) In vitro transdermal test: A drug transdermal diffusion apparatus was used to fix the processed rabbit skin between the supply and receiving compartments, with the stratum corneum facing the supply compartment. A constant temperature water bath circulation at 32° C. was maintained. The system was equilibrated for 30 min. Upon each replacement of the receiving liquid, the air at the lower layer was exhausted, and the liquid droplets on the skin surface were removed with paper. 0.5 g of the ointment was evenly smeared in the supply compartment. The system was stirred with a magnetic stirring at a rotation speed of 600 r/min. At 0.5, 1, 2, 3, 4, 5, 7, 9, 12, and 24 h, 1 mL of sample liquid was taken out from the receiving compartment and transferred into a liquid phase vial, and simultaneously, an equal amount of fresh receiving liquid at the same temperature was added. The liquid phase detection was conducted to calculate the drug permeation rate.

AhR receptor agonistic fold ([1]; drug concentration 0.1 μM): 6.1 ± 0.6 fold
AhR receptor agonistic fold ([1]; drug concentration 1 μM): 37.9 ± 6.9 fold
24-hour drug permeation rate (rank order) [5]: benvitimod >2 #>6 #
24-hour drug permeation rate (rank order) [6]: benvitimod >2 #>6 #
SMILES: Oc1cc(/C=C/c2ccc(F)cc2)cc(O)c1C1CCCC1 [Compound 2, (E)-2-cyclopentyl-5-(4-fluorostyryl)-1,3-benzenediol]
TNFa ([2]; 0.1 μM): 1353.72 pg/mL
inhibitory effect on TNFa relative to reference 1# (benvitimod) ([2]; 1 μM): 2 folds
TNFa ([2]; 1 μM): 941.41 pg/mL
IL4 ([3]; 0.1 μM): 5.19 pg/mL
inhibitory effect on IL4 relative to reference 1# (benvitimod) ([3]; 1 μM): 2 folds
IL4 ([3]; 1 μM): 4.30 pg/mL
Back AD score ([4]; day 0, before ointment treatment (from day 5)): 0.00 ± 0.00
Back AD score ([4]; day 4, before ointment treatment (from day 5)): 3.19 ± 0.75
Back AD score ([4]; day 6, ointment 50 mg once daily from day 5 (1.2 wt % 2#/6#, 1 wt % benvitimod)): 5.63 ± 1.96
Back AD score ([4]; day 8, ointment 50 mg once daily from day 5 (1.2 wt % 2#/6#, 1 wt % benvitimod)): 6.13 ± 1.96**^aab
Back AD score ([4]; day 10, ointment 50 mg once daily from day 5 (1.2 wt % 2#/6#, 1 wt % benvitimod)): 5.31 ± 1.87**^aab
